What was measured:
HCT-116 = HCT-116 IC50 (Table 1); format: cell-based; settings: Homo sapiens
endo-exonuclease = assay: inhibition of endo-exonuclease activity, in-vitro; format: biochemical; settings: read-out: EE IC50
From the text: The inhibition of endo-exonuclease has been measured using pentamidine and a pentamidine analog where the center site of pentamidine (the carbon backbone) has been altered. Endo-exonuclease inhibition has been tested in-vitro.

[1] = test system: non-alcoholic fatty liver disease; settings: mice; Zhao E et al (2017) Hepatology 66:922-935; cited from earlier work

| IC50 (HCT-116) | IC50 (endo-exonuclease) | Compound | body weight [1] | food intake [1] | hepatic triglycerides [1] | serum ALT [1] |
| --- | --- | --- | --- | --- | --- | --- |
| 6.2 µM | 23.2 µM | N=C(N)c1ccc(OCCCCCCCCCCOc2ccc(C(=N)N)cc2)cc1 [Decamidine-isethionate] |  |  |  |  |
| 107 µM | 53.1 µM | Cl.Cl.N=C(N)c1ccc(OCCCCCOc2ccc(C(=N)N)cc2)cc1 [Pentamidine HCl] | reduces | reduces | reduces | reduces |

Reference: US20260263426A1, “DIAMIDINE ANALOGS FOR ANTI-INFLAMMATORY USE” (MONTDOREX INC., priority 2023, published 2026)
